Holding throughout (format): in vivo, rat
For series [1], the system named is rats. The experiment in a line: Passive avoidance (PA), associative learning in rats. As for the experimental part: Passive avoidance was performed in an apparatus (MED Associates Inc., St. Albans, Vt.) consisting of one dark chamber and one light chamber that can be divided by a guillotine door. The training procedure was executed as previously described (N. Venable et al. Psychopharmacology 100, 215 (1990)). Rats were administered a 1.0 mA shock for 3 sec, mice a 0.5 mA shock for 5 sec. Retention tests were performed either at 1, 3 or 7 days post-pairing. Maximum latency was 600 sec for rats, 300 sec for mice.
In the instant invention, rats were pretreated intranasally with one of three dose levels (10 μg/kg, 30 μg/kg, or 60 μg/kg) of Gilatide in 5% β cyclodextrin or an octamer having a sequence homology to CRH and urocortin. […] A control group received vehicle (5% cyclodextrin) alone. With three dose levels for each of the peptides studied, a total of seven (7) groups were employed, each group having 5-8 rats, for a total of 50 rats tested. On the first day of conditioning, the pretreated rats (N=7-13) were administered a single foot shock trial (0.1 mA over 3 seconds) after entering the dark compartment. The animals were replaced in the test apparatus and latencies again were measured on Days 1, 3, 7, and 21 following the aversive stimulus.
Rats were pretreated with either […] 10 μg/kg Gilatide in 5% β cyclodextrin or vehicle by one of three routes of administration: intranasally, subcutaneously, or intraperitoneally. On Day 0, the rats (N=7-13) were conditioned by administration of a single foot shock trial (0.1 mA over 3 seconds) after entry into the dark compartment of a passive avoidance apparatus (the same passive avoidance chamber used in the first series of experiments). At 24 hours (Day 1) following the initial test, and delivery of the single shock, the animals were replaced in the test apparatus and latency again measured. (FIG. 7)
Rates (N=5-10) were pretreated intranasally with one of five dose levels (0.1 μg/kg, 1 μg/kg, 3 μg/kg, 30 μg/kg or 60 μg/kg) of Gilatide in 5% β cyclodextrin, vehicle (5% cyclodextrin), or Nicotine (0.3 mg/kg, subcutaneously). On Day 0, the rats were conditioned by administration of a single foot shock trial (0.1 mA over 3 seconds) after entry into the dark compartment of a passive avoidance apparatus (the same passive avoidance chamber used in the other experiments). The preconditioned rats were retested on Days 1, 3, 7, and 21.
The effect of Gilatide was tested on memory consolidation by administering the peptide after shock testing. Rats (N=7-13) were preconditioned by administering a single foot shock trial (0.1 mA over 3 seconds) after entering the dark compartment of a passive avoidance apparatus. Twenty (20) minutes after the conditioning session, one group of rats was administered 10 μg/kg of Gilatide intranasally (TRN-TXT). Another group of rats (TXT-DLY-TRN) was administered this same dose of Gilatide 24 hours after the conditioning session. Both treatment groups were returned to the test apparatus 24 hours following treatment and latencies were again measured. […] (FIG. 13)
The effects of Gilatide when used with or without an Exendin-4 antagonist were observed and measured. Rats (N=6-13) were pretreated with either 10 μg/kg or 20 μg/kg of Gilatide with or without an Exendin-4 antagonist (10 μg/kg). A control group was administered vehicle alone. The pretreated rats were conditioned on Day 0 by administration of a single foot shock trial (0.1 mA over 3 seconds) after entry into the dark compartment of a passive avoidance apparatus (the same passive avoidance chamber used in the other experiments). The preconditioned rats were retested on 24 hours later. […] (FIG. 14)
Twenty-four hours later the rats were returned to the apparatus and retested. […] (FIG. 15)

In series [2] the test system is rats. The experiment in a line: Contextual fear conditioning in rats. To be noted: vs naïve and EGFP controls. As for the experimental part: Fear conditioning was performed in a modified apparatus (MED Associates Inc., St. Albans, Vt.) housed in a sound attenuated cubicle. […] The animal was placed in the chamber and the occurrence of freezing behavior measured every 10 sec for 2 min before a shock was administered (rats, […], 2 sec; mice, 0.5 mA, 5 sec). Freezing behavior was measured again (for 5 min) the next day. The apparatus was cleaned with 1% acetic acid following conditioning of each animal.
To determine whether increasing GLP-1R levels in the hippocampus would enhance learning, rAAV vectors expressing control EGFP vector and GLP-1R were generated and injected into the hippocampus of rats. See Example 1(vi) for protocol. Three weeks following vector injection, robust hippocampal expression was obtained (data not shown) with transgene mRNA expression in the principal cell groups of the hippocampus. […] See Example 1 (vii) for protocol. A separate group of rats treated in the same manner was trained twice daily for 5 days in the MWM. […] The decrease in latency was not due to increased swimming speed (both GLP-1R and EGFP controls were approx. 23 cm/sec) nor stress effects (Table 4). Furthmore, the decreased latency was not due to a disruption in visual acuity and general locomotion and swimming ability, because rats from both groups located a visual platform in a similar manner (approx. 32±3 sec latency). […]

Series [3] deals with rats. The experiment in a line: Morris Water Maze (MWM), spatial learning in rats. To be noted: modified MWM. The protocol: Spatial learning was assessed using the Morris Water Maze (Morris et al. Nature, 1982, 297: 681). Information was relayed via a tracker (HSV Image, Hampton, UK) to a personal computer, which was quantified by a specialized computer program (Water 2020, Hampton, UK). The acquisition study was performed as described previously. Animals were anaesthetized with isofluorane then administered peptide intra-nasally 20 min before testing. Rats were given four training trials. 48 h after training, a retention test was performed: rats were allowed to find the hidden platform for one trial. Mice initially had six trials without treatment to habituate them to the procedure. The following day, they were administered vehicle or [Ser(2)]exendin(1-9) (SEQ ID NO:1) and trained for an additional four trials with the platform in a new location. For a retention test, mice were given one trial to locate the platform the next day. Latency to find the platform was considered a measure of retention of spatial learning.
(§1) The elevated plus maze consists of two open and two closed arms; time spent and the number of entries into open arms are indicators of neophobic anxiety in rats. The number of entries and total time spent in the open arms were tabulated over 5 min by an observer blind to the experimental condition. Animals falling off the apparatus were eliminated from the study. For the intracerebroventricular (i.c.v.) studies, rats were implanted with a cannula (22 gauge, Plastics One, Roanoke, Va.) into the left ventricle (AP 0.8 mm, ML 1.6 mm, DV 3.5 mm from dura) then allowed at least 3-4 days to recover. The peptides were infused in a total volume of 2 μl (1 μl min −1) 25 min before training with two trials per day for 5 days. The visual platform test was conducted after the last training trial on day 5 in a different location of the pool.
In another series of experiments, rats (N=15-16) were pretreated with either Gilatide (10 μg/kg, 30 μg/kg, or 60 μg/kg) or vehicle and then trained for four trials in a Morris Water Maze. Two days following training, the rats were retested. Latency to find a submerged platform in the Morris Water Maze paradigm was measured.
Clinically approved treatments for cognitive impairment act primarily on the cholinergic system. The effects of intranasal GLP-1 and [Ser(2)]exendin(1-9) were compared with that of the cholinergic agonist arecoline on spatial learning in a modified version of the MWM (Setlow, B. et al. Learn. Mem, 2000. 7: 187). Rats were first administered vehicle, [Ser(2)]exendin(1-9), GLP-1 or arecoline, and trained for four trials to locate a submerged platform. They were then tested in a single retention trial 48 hours after initial training. There were no differences between treatments in acquisition (FIG. 10A).

Series [4] can be described thus: Blood glucose in fasting rats. As to conditions: 24 hour fasting rats, 100 ug intraperitoneal; for Blood glucose mean ± s.e.m.: 20 minutes after administration. As for the experimental part:
Gilatide administered intraperitoneally (IP), but not intranasally (IN), lowers blood glucose levels in rats fasted for 24 hours. […] Gilatide's effect on blood glucose in fasting rats was measured. Groups of 24 hour fasting rats (n=5 or 6) were delivered either vehicle, insulin, Gilatide, GLP-1, exendin-4, Insulin A-chain, Insulin B-chain or C-peptide. Glucose levels were measured 20 minutes following intraperitoneal administration. All peptides were given at a dose of 100 ug (Table 2). In this experiment, insulin, the positive control, led to a 44% drop in blood glucose. Gilatide led to a significant drop in glucose level by 14%.

In series [5] the test system is rats. Briefly: Elevated plus maze test (anxiogenic effects). Further details: TIME Open Arm / TIME Closed Arm: unit not given here. As for the experimental part: as §1

Marks after values point to notes of the source that are not given here.

For the compound `COc1cccc(-c2cc(=O)c3ccccc3o2)c1N` [PD98059], the “effect on enhancement of associative learning by intranasal [Ser(2)]exendin(1-9)” value is listed as “not when given before (PRE) training” in series [1] (PD98059 5 μg i.c.v. before (PRE) training) and “completely blocked” in series [1] (PD98059 5 μg i.c.v. immediately after training (POST)).
For the compound `COC(=O)C1=CCCN(C)C1` [arecoline], in series [2], the “freezing behavior in contextual fear conditioning” value is given as “enhanced freezing behavior”. Also, in series [3] (48 hours after training, [Ser(2)]exendin(1-9) 30 μg intranasal, arecoline 0.3 mg s.c.), the “latency to locate the submerged platform in the retention trial” value is reported as “significantly reduced the latency”. The “acquisition of spatial learning” value in series [3] (intranasal (arecoline s.c.), four trials) is listed as “did not affect acquisition of spatial learning”.
`NC(=O)CC[C@@H]1NC(=O)[C@H](Cc2ccccc2)NC(=O)[C@H](Cc2ccc(O)cc2)NC(=O)[C@@H](N)CSSC[C@@H](C(=O)N2CCC[C@H]2C(=O)N[C@@H](CCCN=C(N)N)C(=O)NCC(N)=O)NC(=O)[C@H](CC(N)=O)NC1=O` [vasopressin]: in series [1] (i.c.v., GLP-1 10 ng and 100 ng, [Ser(2)]exendin(1-9) 10 ng), the “latency in PA” value is recorded as “enhanced latency”. Also, in series [1] (intranasal, [Ser(2)]exendin(1-9) 3, 10, 30 μg, vasopressin 0.3 μg (FIG. 9A)), the “latency in the PA test” value is “increased latency”.
Take “Insulin A chain: inactive insulin fragment”: the “Blood glucose mean ± s.e.m.” value in series [4] turned out to be 90.3 ± 4.7 mg/dL.
In the case of `C1CCc2nnnn2CC1` [PTZ], in series [5] (20 mg/kg IP), the “ENTRIES Closed Arm” value is recorded as 1.6 ± 0.4, the “ENTRIES Open Arm” value was 0***, the “TIME Closed Arm” value is reported as 249.6 ± 13.32 and the “TIME Open Arm” value was 0***.
In the case of Insulin, in series [4] (20 minutes), the “drop in blood glucose” value came to 44%. Moreover, the “Blood glucose mean ± s.e.m.” value in series [4] is reported as 50.7 ± 8.2 (P < 0.01) mg/dl.
For the compound C peptide, the “Blood glucose mean ± s.e.m.” value in series [4] stood at 90.3 ± 8.9 mg/dL.
`CN1CCCC1c1cccnc1` (stereo not drawn) [nicotine]: the “latency in PA” value in series [1] (0.3 mg/kg subcutaneously, 24 hours) was “modestly increased latencies”.
“Insulin B chain: inactive insulin fragment”: the “Blood glucose mean ± s.e.m.” value in series [4] was found to be 100 ± 4.9 mg/dL.
`Cc1ncc2n1-c1ccc(Cl)cc1C(c1ccccc1F)=NC2` [Midazolam]: in series [5] (1.5 mg/kg IP), the “ENTRIES Closed Arm” value is recorded as 5.1 ± 0.5, the “ENTRIES Open Arm” value worked out at 6.6 ± 0.7, the “TIME Closed Arm” value came out at 89.2 ± 15 and the “TIME Open Arm” value came out at 141.3 ± 18.
